Reference: patent publication US10159697B2, “Methods for enhancing hematopoietic stem/progenitor cell engraftment” (CHILDREN'S MEDICAL CENTER CORPORATION, priority 2009, dated 2018)

Tested on: hematopoietic stem and/or progenitor cell engraftment
Assay: adult zebrafish whole kidney marrow competitive transplantation assay
Format: in vivo
Conditions: for engraftment signal in pilot screen of 10 bioactive compounds: by four weeks post transplant, 10 recipients per treatment; for average G/R / percentage of positive recipients: green marrow cells incubated in vitro for 4 hrs, mixed with red marrow 1:4, 4 wpt, compared with DMSO control; for engraftment: in vitro incubation of green marrow with 10 μM dmPGE2 or 0.5 μM BIO at room temperature for 2-4 hours, by 4 weeks post transplant
Description: A transparent adult zebrafish, casper, was used as a transplantation recipient. Casper is a double homozygous pigment mutant for the nacre allele (devoid of melanocytes) and the roy allele (devoid of iridophores and reduced melanoyctyes), which allows direct visualization of GFP labeled hematopoietic stem cell homing and engraftment without killing the recipients. Two marrows are used: Tg(β-actin:GFP) and Red GloFish® respectively to compete with each other at varying ratios e.g., 1:4, which can generate robust competition between the two donors. In one embodiment, the red marrow is the competitor, as well as an internal control for the transplant. At different timepoints post-transplant, the recipients are anesthetized and two pictures for each recipient are taken by a fluorescence stereomicroscope with GFP/DsRed filters individually. Images are analyzed by software, such as ImageJ, which can quantify the GFP/DsRed fluorescence intensity. The relative engraftment efficiency of the manipulated green marrow is measured by the ratio of the GFP intensity over the DsRed intensity within the same kidney region after background subtraction (labeled as G/R).
A double-color labeled competitive transplantation assay was developed, as shown by the flow chart in FIG. 1A. GFP+ and DsRed2+ marrow cells are isolated from Tg(β-actin:GFP) and commercially available Red GloFish®. The two donor populations are mixed at a certain ratio and injected into sublethally irradiated casper recipients retro-orbitally. The DsRed2+ marrow is used as the competitor. Four weeks later, the engraftment is visualized by fluorescence dissection scope. Pictures of GFP and DsRed engraftment are taken for each recipient and analyzed by ImageJ. The kidney region is manually selected and the average fluorescence intensities of both green and red are measured within the same region. The average background intensity is measured in a region outside the fish, and subtracted from the kidney intensity. The calculation of the relative engraftment is shown by the equation in FIG. 1B.
Adult zebrafish donors are anaesthetized with 0.2% tricaine before blood and kidney collection. Peripheral blood is obtained from adult casper by cardiac puncture with micropipette tips coated with heparin and collected into 0.9×PBS containing 5% FCS. About 3-5 million red blood cells are harvested from one donor. To dissect whole kidney marrow (WKM), a ventral midline incision is made on the donor fish. Whole kidney is dissected out and placed into ice-cold 0.9×PBS containing 5% FCS. Single-cell suspensions are generated by aspiration followed by filtering through a […] nylon mesh filter into a 50 ml conical tube. The flow-though part is diluted with a final volume of 25 ml and centrifuged at 1,500 rpm for 8 minutes. The supernatant is discarded and the pellet cells are resuspended in 1 ml 0.9×PBS containing 5% FCS. The number of viable cells are counted with a hemocytometer. […] Finally, the peripheral blood and kidney marrow cells are centrifuged at 1,500 rpm for 8 minutes, resuspended in 0.9×PBS containing 5% FCS and mixed at a certain ratio and concentration. Casper recipients are anesthetized in tricaine. 4 μl of the cell suspension mixture described above is injected into the circulation retro-orbitally through a Hamilton syringe (26 s gauge, 10 μl volume). […] Transplanted recipients can be anesthetized in tricaine and visualized over time on a Zeiss Discovery V8 stereomicroscope with a 1.2× PlanApo lens and GFP/DsRed filters. Images are captured using AxioVision software and for each recipient, two images are taken with GFP or DsRed filter respectively. The images are all saved in .tif format and analyzed using ImageJ software.

Row | SMILES | score in the competitive transplant model (at 3 months) | score in the competitive transplant model (at 4 weeks) | engraftment signal in pilot screen of 10 bioactive compounds | average G/R | percentage of positive recipients | engraftment
1 | O=C1Nc2cc(Br)ccc2C1=C1Nc2ccccc2C1=NO [BIO, 6-bromorindirubin-3′-oxime] | score positive | score positive | enhanced signal above the rest of the chemicals tested | significantly increased | significantly increased | increase engraftment
2 | CCCCC(C)(C)[C@H](O)/C=C/[C@H]1[C@H](O)CC(=O)[C@@H]1C/C=C\CCCC(=O)O [dmPGE2, 16-,16-dimethyl Prostaglandin E2] | score positive | score positive | enhanced signal above the rest of the chemicals tested | significantly increased | significantly increased | increase engraftment
